# According to the NIST ThermoML archive (doi:10.1021/je4008298):
# Numbers after ± are expanded uncertainties.
# Experiment: mn = molality of the nth substance listed, in mol/kg
# Settings: for viscosity / mass density: 101.3 kPa, Liquid; for viscosity: Capillary tube (Ostwald / Ubbelohde) method; for surface tension liquid-gas: Pendant drop shape
structure (smiles),measurement,setting,value
"NC(CO)CO [2-amino-1,3-propanediol] + O",viscosity,"293.2 K, m1 = 0.953",1.244 ± 0.018 mPa·s
same,viscosity,"293.2 K, m1 = 2.052",1.606 ± 0.02 mPa·s
same,viscosity,"293.2 K, m1 = 3.464",2.157 ± 0.024 mPa·s
same,viscosity,"293.2 K, m1 = 4.693",2.784 ± 0.027 mPa·s
same,mass density,"293.2 K, m1 = 0.953",1012.63 ± 0.72 kg/m3
same,mass density,"293.2 K, m1 = 2.052",1026.97 ± 0.74 kg/m3
same,mass density,"293.2 K, m1 = 3.464",1041.67 ± 0.76 kg/m3
same,mass density,"293.2 K, m1 = 4.693",1052.77 ± 0.79 kg/m3
same,surface tension liquid-gas,"298.2 K, m1 = 0.959",71.7 ± 0.6 mN/m
same,surface tension liquid-gas,"298.2 K, m1 = 2.151",71.3 ± 0.6 mN/m
same,surface tension liquid-gas,"298.2 K, m1 = 3.459",70.8 ± 0.6 mN/m
same,surface tension liquid-gas,"298.2 K, m1 = 4.745",70.4 ± 0.6 mN/m
same,viscosity,"300.2 K, m1 = 0.953",1.056 ± 0.018 mPa·s
same,viscosity,"300.2 K, m1 = 2.052",1.335 ± 0.019 mPa·s
same,viscosity,"300.2 K, m1 = 3.464",1.769 ± 0.021 mPa·s
same,viscosity,"300.2 K, m1 = 4.693",2.261 ± 0.024 mPa·s
same,mass density,"300.2 K, m1 = 0.953",1010.28 ± 0.77 kg/m3
same,mass density,"300.2 K, m1 = 2.052",1024.18 ± 0.79 kg/m3
same,mass density,"300.2 K, m1 = 3.464",1038.8 ± 0.81 kg/m3
same,mass density,"300.2 K, m1 = 4.693",1050.01 ± 0.83 kg/m3
same,viscosity,"307.2 K, m1 = 0.953",0.896 ± 0.017 mPa·s
same,viscosity,"307.2 K, m1 = 2.052",1.118 ± 0.018 mPa·s
same,viscosity,"307.2 K, m1 = 3.464",1.458 ± 0.02 mPa·s
same,viscosity,"307.2 K, m1 = 4.693",1.845 ± 0.022 mPa·s
same,mass density,"307.2 K, m1 = 0.953",1008.07 ± 0.82 kg/m3
same,mass density,"307.2 K, m1 = 2.052",1021.61 ± 0.84 kg/m3
same,mass density,"307.2 K, m1 = 3.464",1036.8 ± 0.86 kg/m3
same,mass density,"307.2 K, m1 = 4.693",1047.38 ± 0.88 kg/m3
same,surface tension liquid-gas,"313.2 K, m1 = 0.959",69.4 ± 0.6 mN/m
same,surface tension liquid-gas,"313.2 K, m1 = 2.151",69 ± 0.6 mN/m
same,surface tension liquid-gas,"313.2 K, m1 = 3.459",68.6 ± 0.6 mN/m
same,surface tension liquid-gas,"313.2 K, m1 = 4.745",68.3 ± 0.6 mN/m
same,viscosity,"313.2 K, m1 = 0.953",0.8 ± 0.017 mPa·s
same,viscosity,"313.2 K, m1 = 2.052",0.983 ± 0.017 mPa·s
same,viscosity,"313.2 K, m1 = 3.464",1.275 ± 0.018 mPa·s
same,viscosity,"313.2 K, m1 = 4.693",1.588 ± 0.02 mPa·s
same,mass density,"313.2 K, m1 = 0.953",1005.49 ± 0.86 kg/m3
same,mass density,"313.2 K, m1 = 2.052",1019.22 ± 0.88 kg/m3
same,mass density,"313.2 K, m1 = 3.464",1033.49 ± 0.91 kg/m3
same,mass density,"313.2 K, m1 = 4.693",1044.53 ± 0.92 kg/m3
